Test results as given in EP0563686A1, “Utilization of 3 substituted amino isoxazole derivatives against endoparasites, new 3 substituted amino isoxazols and process for their preparation” (BAYER AG, priority 1992, dated 1993).

Tests used:
Haemonchus contortus = experiment: In vivo nematode test, Haemonchus contortus / sheep (faecal worm egg count before and after treatment); set-up: species or system Schaf; settings: experimentally infected sheep, treated after prepatency, pure active in gelatin capsules, oral, dose giving complete cessation of egg excretion, read-out: Dosis effectiva
Source text: Haemonchus contortus / Schaf
Experimentell mit Haemonchus contortus infizierte Schafe wurden nach Ablauf der Präpatenzzeit des Parasiten behandelt. Die Wirkstoffe wurden als reiner Wirkstoff in Gelatinekapseln oral appliziert.
(§1) Der Wirkungsgrad wird dadurch bestimmt, daß man die mit dem Kot ausgeschiedenen Wurmeier vor und nach der Behandlung quantitativ auszählt.
Ein völliges Sistieren der Eiausscheidung nach der Behandlung bedeutet, daß die Wärmer abgetrieben wurden oder so geschädigt sind, daß sie keine Eier mehr produzieren (Dosis effectiva).
(§2) Geprüfte Wirkstoffe und wirksame Dosierungen (Dosis effectiva) sind aus der nachfolgenden Tabelle ersichtlich.

[1] = system: Trichostrongylus colubriformis; experiment: In vivo nematode test, Trichostrongylus colubriformis / sheep (faecal worm egg count before and after treatment); set-up: species or system Schaf; settings: experimentally infected sheep, treated after prepatency, pure active in gelatin capsules, oral, dose giving complete cessation of egg excretion, read-out: Dosis effectiva
Source text: Trichostrongylus colubriformis / Schaf
Experimentell mit Trichostrongylus colubriformis infizierte Schafe wurden nach Ablauf der Präpatenzzeit des Parasiten behandelt. Die Wirkstoffe wurden als reiner Wirkstoff in Gelatinekapseln oral appliziert.
as §1
Ein völliges Sistieren der Eiausscheidung nach der Behandlung bedeutet, daß die Würmer abgetrieben wurden oder so geschädigt sind, daß sie keine Eier mehr produzieren (Dosis effectiva).
as §2

Row | SMILES | minimal effective dose (Haemonchus contortus) | minimal effective dose [1]
1 | COc1ccc(-c2cc(NCCc3ccccc3)no2)cc1 [Beispiel 13] | 10 mg/kg | –
2 | Brc1ccc(-c2cc(NC3CCCCC3)no2)cc1 [Beispiel 43] | 10 mg/kg | –
3 | CCNc1cc(-c2ccc(SC(F)(F)F)cc2)on1 [Beispiel 22] | 10 mg/kg | 10 mg/kg
4 | COc1ccc(-c2cc(NCC3CC3)no2)cc1 [Beispiel 10] | 10 mg/kg | 10 mg/kg
5 | CCNc1cc(-c2ccc(OC)cc2)on1 [Beispiel 4, 3-Ethylamino-5-(4-methoxyphenyl)-isoxazol] | 10 mg/kg | 10 mg/kg
6 | CCNc1cc(-c2ccsc2)on1 [Beispiel 63] | – | 10 mg/kg
7 | CCNc1cc(-c2cccnc2)on1 [Beispiel 57] | 10 mg/kg | 10 mg/kg
8 | COc1ccc(-c2cc(NC3CC3)no2)cc1 [Beispiel 6] | 10 mg/kg | 10 mg/kg
